Reference: patent US12677825B2, “Composition for protecting islet transplantation” (LG CHEM, LTD., priority 2020, dated 2026)

How the values were obtained:
[1] = test system: islets from hIAPP+/− FVB/N mice; experiment: Serum-deprived culture of mouse islets (viability, ROS); type: cell-based; settings: dose-dependent 0.1 μM to 20 μM
Protocol: (§1) Purified hIAPP^+/− FVB/N and C57BL/6J mouse were suspended in RPMI 1640 (Gibco, Grand Island, NY, USA) containing 100 IU/mL penicillin and 100 μg/mL streptomycin, and cultured at 37° C. in a fully humidified 5% CO2 atmosphere. Purified NHP islets were suspended in CMRL 1066 medium (Coming Life Sciences, Tewksbury, MA; catalog number 99-663-CV) containing 100 IU/mL penicillin and 100 μg/mL streptomycin, and cultured at 37° C. in a fully humidified 5% CO2 atmosphere. […]
The viability of islets was evaluated using Alamar blue staining according to the manufacturer's protocol (Invitrogen, Grand Island, NY, USA). […] The fluorescence intensity of each well was measured at 570/585 nm (excitation/emission) using a GloMax-Multi Plus Detection System (Promega, Fitchburg, WI, USA), and the values were normalized to a blank.
The oxidative stress levels in hIAPP^+/− mouse islets were determined right after islet isolation and after ex vivo culture of isolated islets. The oxidative stress of the islets was quantified using a fluorescence-based intracellular ROS detection method and by estimating the concentration of malondialdehyde (MDA), a by-product of lipid peroxidation. The formation of total ROS, superoxide ion and nitric oxide was determined using a reactive oxygen species detection kit (ENZ-51011, Enzo Life Sciences, Farmingdale, New York, USA). […]

RINm5F cells = experiment: Serum-deprived culture of RINm5F cells (viability, ROS); type: cell-based, rat; settings: dose-dependent 0.1 μM to 20 μM
Protocol: Islets were isolated from heterozygous human islet amyloid polypeptide transgenic (hIAPP^+/−)FVB/N mice (Jackson Laboratory, Bar Harbor, ME, USA), […] mice (Orientbio, Sungnam, Korea), and cynomolgus monkeys (Macaca fascicularis; Orientbio, Sungnam, Korea). For additional in vitro studies, rat insulinoma cells (RINm5F cells) were treated with or without Compound 1 during culture under tert-butyl hydroperoxide (tBHP) exposure or serum deprivation condition. RINm5F cells were suspended in DMEM medium (Gibco, Grand Island, NY, USA) containing 100 IU/mL penicillin and 100 μg/mL streptomycin, and cultured at 37° C. in a fully humidified 5% CO2 atmosphere. All experimental protocols in this study were approved by the Institutional Animal Care and Use Committee (IACUC) of Samsung Biomedical Research Institute.

[2] = test system: TNF-α, IL-1β, IL-6, c-JUN and HMGB1; experiment: Real-time qRT-PCR transcript levels during serum-deprived ex vivo culture; type: cell-based, mouse; settings: after 1 and 3 days of ex vivo culture, BSA+Compound 1 vs BSA group; FIGS. 6C, 6D
Protocol: as §1
Harvested islets were treated with 500 μL Trizol (Life Technologies, Grand Island, NY, USA), and then 100 μL of chloroform was added. […] RNA purity was assessed by NanoDrop (Thermo Scientific, Wilmington, DE, USA) and agarose gel electrophoresis. […] Total RNA was reverse transcribed to quantify the expression of genes using the SuperScript™ II reverse transcription system (Life Technologies) according to the manufacturer's protocol.
Real-time qRT-PCR was performed using gene-specific primer pairs (Table 1). […] To quantify the expression level of genes, real-time PCR was performed using a SYBR premix kit (Takara Bio Inc., Tokyo, Japan) and an ABI Prism 7000 (Applied Biosystems, Foster City, CA, USA) according to the manufacturers' protocols.

[3] = test system: islets from hIAPP+/− FVB/N mice; experiment: Intracellular free radical detection and lipid peroxidation after islet isolation; type: cell-based, mouse; settings: 20 μM Compound 1 during islet isolation, vs control islets
Protocol: Mouse islets were isolated from 10- to 12-week-old hIAPP^+/− and C57BL/6 mice as described previously. Briefly, 0.8 mg/mL of collagenase P (Roche, Indianapolis, IN, USA) in Hank's buffered saline solution (HBSS, Sigma-Aldrich, St. Louis, MO, USA) with or without 20 μM Compound 1 were infused into the common bile duct for mouse pancreas digestion. Islets were purified from the digested pancreas using a Ficoll (Biochrom, Berlin, Germany) gradient and washed several times with 1 xHBSS. Isolated islets were cultured while free-floating in 10 mL of RPMI 1640 (Gibco, Grand Island, NY, USA). The medium was supplemented with 10% heat-inactivated FBS (fetal bovine serum) at 37° C. and 5% CO2 incubation prior to the ex vivo and in vivo studies.
The oxidative stress levels in hIAPP^+/− mouse islets were determined right after islet isolation and after ex vivo culture of isolated islets. The oxidative stress of the islets was quantified using a fluorescence-based intracellular ROS detection method and by estimating the concentration of malondialdehyde (MDA), a by-product of lipid peroxidation. The formation of total ROS, superoxide ion and nitric oxide was determined using a reactive oxygen species detection kit (ENZ-51011, Enzo Life Sciences, Farmingdale, New York, USA). The ROS content was measured by levels of DHR123 fluorescence. The kit was applied according to the manufacturer's protocol.

Compound: O=S1(=O)CCN(Cc2cc(NC3CCOCC3)c3[nH]c(-c4ccccc4)cc3c2)CC1 [Compound 1]
- relative cell viability ([1]; FIG. 4D): significantly increased
- serum deprivation-induced ROS ([1]; FIG. 4F): decreased
- relative cell viability (RINm5F cells; serum deprivation, FIG. 4C): significantly increased
- serum deprivation-induced ROS (RINm5F cells; serum-deprived culture, FIG. 4E): decreased
- transcript levels of TNF-α, IL-1β, IL-6, c-JUN and HMGB1 [2]: significantly attenuated
- ROS contents in islets ([3]; FIG. 1C): markedly decreased
- oxidative stress levels in islets ([3]; FIG. 1D): markedly decreased
